Source: PMC5469451, “Identification of compounds that suppress Toxoplasma gondii tachyzoites and bradyzoites” (PLoS ONE, 2017)
Like-named read-outs stand apart in the source and are kept apart here. Where a SMILES comes first, the peptide text is derived from it. The star is where a group is joined. Boc = CC(C)(C)OC(=O)*

Columns and labels:
[1] = test system: Vero cells; test: Host cell cytotoxicity assay (Cell-Titer Glo), Vero cells; format: cell-based
Description: (§1) Host cells were treated with compounds at the same concentration used for screening (i.e., 0.5% DMSO and 10 μM compound). Vero cells and HFF cells were both used as host cells because both cell types were used for the parasite screening. After incubation for 48 h in DMEM supplemented with 5% FBS, L-glutamine, penicillin, and streptomycin, cell viabilities were measured by using a Cell-Titer Glo kit (Promega) following the manufacturer’s instructions. Control wells were treated with DMSO alone in culture medium to calculate the 100% viability for each cell type.

[2] = test system: PLK/DLUC_1C9 tachyzoites in Vero cells; test: Primary screening: T. gondii growth assay, Renilla luciferase; format: cell-based, Toxoplasma gondii; details: 48 h; for inhibition at 10 µM: Toxoplasma gondii, read-out: Parasite Inhibition (%)
Description: In the primary screening, purified PLK/DLULC_1C9 tachyzoites were incubated with Vero cells at a multiplicity of infection (MOI) of 0.5. After a 2-h incubation, the infected host cells were trypsinized to obtain a cell suspension and then these suspended infected cells were inoculated into 96-well optical bottom plates containing the compound library. Each well was inoculated with 2500 cells in 25 μL of culture medium. […] Following cell inoculation, each well therefore contained 0.5% DMSO and 10 μM compound. After 48 h of culture, Renilla luciferase activity was measured by using Renilla-Glo (Promega, WI, USA) following the manufacturer’s instructions. […] The Z’-value for each plate was calculated from the Renilla luciferase activity in the negative and positive control wells.

[3] = test system: RH-2F tachyzoites (type I strain) in HFF cells; test: Confirmatory screening: RH-2F β-galactosidase growth assay in HFF cells; format: cell-based, Toxoplasma gondii; details: 48 h; for inhibition at 2.5 µM / inhibition at 25 µM: Toxoplasma gondii, read-out: Parasite inhibition (%)
Description: In the confirmatory screening, we utilize an RH strain β-galactosidase reporter parasite termed RH-2F (a type I strain). Briefly, RH-2F parasites were purified from freshly lysed infected host cells and used to infect confluent HFF cells cultured in 96-well plates. Five hundred parasites were added to each well, along with each test compound and 50 μL of culture medium. Plates were then incubated for 10 min at room temperature followed by an incubation at 37°C for 48 h in a CO2 incubator.
To measure the effects of tanshinone IIA and hydroxyzine on intracellular parasite growth, parasites were allowed to invade for 2 h, uninvaded parasites were washed away, and medium with compounds was added. After 48 h, the plates were frozen at -80°C. Plates were then thawed just prior to the measurement of beta-galactosidase activity. Beta-Glo (Promega) was used to measure β-galactosidase activity following the manufacturer’s instructions.

[4] = test system: HFF cells; test: Host cell cytotoxicity assay (Cell-Titer Glo), HFF cells; format: cell-based, human
Description: as §1, with “Vero” for “Host cells were treated with compounds at the same concentration used for screening (i.e., 0.5% DMSO and 10 μM compound). Vero”

[5] = Host cell cytotoxicity assay (Cell-Titer Glo), Vero cells; format: cell-based; details: African green monkey
Description: as §1

[6] = Host cell cytotoxicity assay (Cell-Titer Glo), HFF cells; format: cell-based, human; details: human
Description: as §1, with “Vero” for “Host cells were treated with compounds at the same concentration used for screening (i.e., 0.5% DMSO and 10 μM compound). Vero”

[7] = 10 μM, PLK/DLUC_1C9 in Vero cells, DMSO = 0%, 10 μM pyrimethamine = 100%
[8] = 2.5 μM, RH-2F in HFF, compared with 10 μM pyrimethamine
[9] = 25 μM, RH-2F in HFF, compared with 10 μM pyrimethamine
[10] = 10 μM, 48 h, Vero cells, DMSO = 100%
[11] = 25 μM, 48 h, HFF cells, compared with DMSO
[12] = 10 μM, 48 h, Vero cells, DMSO = 100%, read-out: Host Viability (%)
[13] = HFF, 2.5 μM, RH-2F in HFF, compared with 10 μM pyrimethamine
[14] = HFF, 25 μM, RH-2F in HFF, compared with 10 μM pyrimethamine

CC(C)(C)c1ccc(C(O)CCCN2CCC(C(O)(c3ccccc3)c3ccccc3)CC2)cc1 (racemic) [(±)-Terfenadine]
Host Viability (%) ([1]; 10 µM): 85%
Parasite inhibition (%) [2, 7]: 104%
Parasite inhibition (%) [3, 8]: -12%
Parasite inhibition (%) [3, 9]: 96%
Host cell viability (%) ([4]; 2.5 µM): 96%
Host cell viability (%) ([4]; 25 µM): 0.1%

COc1ccc(C(=O)/C(Cc2cc(OC)c(OC)c(OC)c2)=C(\C(=O)O)c2ccc3c(c2)OCO3)cc1 [(2Z)-2-(1,3-Benzodioxol-5-yl)-4-(4-methoxyphenyl)-4-oxo-3-(3,4,5-trimethoxybenzyl)-2-butenoic acid]
viability at 48 h, 10 µM [5]: 85%
inhibition at 10 µM [2, 7]: 93%

CCCCC/C=C\C/C=C\C/C=C\C/C=C\CCCC(=O)Nc1ccc(O)cc1 [AM404]
Host Viability (%) [1, 10]: 100%
Parasite inhibition (%) [2, 7]: 103%
Parasite inhibition (%) [3, 8]: -11%
Parasite inhibition (%) [3, 9]: 59%
Host cell viability (%) ([4]; 2.5 μM, 48 h, HFF cells): 93%
Host cell viability (%) [4, 11]: 86%

CC(C)C[C@H]1C(=O)N2CCC[C@H]2[C@]2(O)O[C@](NC(=O)[C@@H]3C=C4c5cccc6[nH]c(Br)c(c56)C[C@H]4N(C)C3)(C(C)C)C(=O)N12 [Bromocriptine]
viability at 48 h, 10 µM [5, 12]: 85%
inhibition at 10 µM [2, 7]: 105%
inhibition at 2.5 µM [3, 8]: -8%
inhibition at 25 µM [3, 9]: 110%
viability at 48 h, 2.5 µM ([6]; HFF cells, 2.5 μM, 48 h, HFF cells, read-out: Host cell viability (%)): 98%
viability at 48 h, 25 µM ([6]; HFF cells, 25 μM, 48 h, HFF cells, compared with DMSO, read-out: Host cell viability (%)): 93%

O=C(/C=C/c1ccc(O)c(O)c1)c1ccc(O)cc1O [Butein]
viability at 48 h, 10 µM [5]: 93%
inhibition at 10 µM [2, 7]: 96%
inhibition at 2.5 µM [3, 13]: -11%
inhibition at 25 µM [3, 14]: 110%
viability at 48 h, 2.5 µM ([6]; Host cell viability (%)): 102%
viability at 48 h, 25 µM ([6]; Host cell viability (%)): 91%

Clc1ccccc1C(c1ccccc1)(c1ccccc1)n1ccnc1 [Clotrimazol]
viability at 48 h, 10 µM [5]: 94%
inhibition at 10 µM [2, 7]: 99%

O=c1[nH]c2ccccc2n1CCCN1CCC(n2c(=O)[nH]c3cc(Cl)ccc32)CC1 [Domperidone]
viability at 48 h, 10 µM [5]: 94%
inhibition at 10 µM ([2]; Vero): 93%
inhibition at 2.5 µM [3, 13]: -7.2%
inhibition at 25 µM ([3]; HFF): 77%
viability at 48 h, 2.5 µM ([6]; Host cell viability (%)): 94%
viability at 48 h, 25 µM ([6]; Host cell viability (%)): 83%

Nc1ccccc1NC(=O)c1ccc(CNC(=O)OCc2cccnc2)cc1 [Entinostat]
viability at 48 h, 10 µM [5]: 83%
inhibition at 10 µM [2, 7]: 91%
inhibition at 2.5 µM [3, 13]: -20%
inhibition at 25 µM [3, 14]: 60%
viability at 48 h, 2.5 µM ([6]; Host cell viability (%)): 92%
viability at 48 h, 25 µM ([6]; Host cell viability (%)): 91%

OCCN1CCN(CCCN2c3ccccc3Sc3ccc(C(F)(F)F)cc32)CC1 [FLUPHENAZINE]
viability at 48 h, 10 µM [5]: 83%
viability at 48 h, 2.5 µM ([6]; Host cell viability (%)): 104%
viability at 48 h, 25 µM ([6]; Host cell viability (%)): 84%

CCN(CC)CCNc1ccc(CO)c2sc3ccccc3c(=O)c12 [Hycanthone]
viability at 48 h, 10 µM [5]: 82%
inhibition at 10 µM [2, 7]: 97%

Clc1ccc(C(Cn2ccnc2)OCc2c(Cl)cccc2Cl)c(Cl)c1 (centres unmarked) [Isoconazole]
viability at 10 µM [5, 12]: 101%
inhibition at 10 µM [2, 7]: 104%

Cc1ccc(C(=O)c2cc(/C=C/C(=O)NO)n(C)c2)cc1 [MC-1293]
Host Viability (%) [1, 10]: 85%
Parasite inhibition (%) [2, 7]: 103%
Parasite inhibition (%) [3, 8]: 12%
Parasite inhibition (%) [3, 9]: 95%
Host cell viability (%) ([4]; 2.5 μM, 48 h, HFF cells): 98%
Host cell viability (%) [4, 11]: 95%

OC(c1cc(C(F)(F)F)nc2c(C(F)(F)F)cccc12)C1CCCCN1 (centres unmarked) [Mefloquine]
viability at 48 h, 10 µM [5]: 87%
inhibition at 10 µM [2, 7]: 101%
inhibition at 2.5 µM [3, 8]: 6.5%
inhibition at 25 µM [3, 9]: 113%
viability at 48 h, 2.5 µM ([6]; Host cell viability (%)): 94%
viability at 48 h, 25 µM ([6]; Host cell viability (%)): 48%

COc1ccc(S(=O)(=O)N(CC(=O)NO)CC(C)C)cc1 [N-Hydroxy-N2-isobutyl-N2-[(4-methoxyphenyl)sulfonyl]glycinamide]
viability at 10 µM [5, 12]: 98%
inhibition at 10 µM ([2]; Vero): 101%

CC(C)[C@H](NC(=O)CNC(=O)OC(C)(C)C)C(=O)N[C@H](C=O)C(C)C [N-{[(2-Methyl-2-propanyl)oxy]carbonyl}glycyl-N-[(2S)-3-methyl-1-oxo-2-butanyl]-L-valinamide] (Boc-Gly-Val-Val-aldehyde)
viability at 48 h, 10 µM [5]: 106%
inhibition at 10 µM [2, 7]: 105%

COC(=O)C1=C(C)NC(C)=C(C(=O)OCCCN2CCC(c3ccccc3)(c3ccccc3)CC2)[C@H]1c1cccc([N+](=O)[O-])c1 [Niguldipine]
viability at 10 µM [5]: 77%
inhibition at 10 µM ([2]; Vero): 103%
inhibition at 2.5 µM ([3]; HFF): -19%
inhibition at 25 µM ([3]; HFF): 96%
viability at 2.5 µM [6]: 99%
viability at 25 µM [6]: 84%

COc1ccc2[nH]c([S+]([O-])Cc3ncc(C)c(OC)c3C)nc2c1 (centres unmarked) [Omeprazole]
viability at 48 h, 10 µM [5]: 97%
inhibition at 10 µM ([2]; Vero): 92%
inhibition at 2.5 µM ([3]; HFF): 4.3%
inhibition at 25 µM ([3]; HFF): 44%
viability at 48 h, 2.5 µM ([6]; Host cell viability (%)): 100%
viability at 48 h, 25 µM ([6]; Host cell viability (%)): 100%

O=C1[C@H]2CCCC[C@H]2C(=O)N1CCCCN1CCN(c2nsc3ccccc23)CC1 [Perospirone]
viability at 48 h, 10 µM [5]: 96%
inhibition at 10 µM [2, 7]: 100%
inhibition at 2.5 µM [3, 13]: 4.5%
inhibition at 25 µM [3, 14]: 59%
viability at 48 h, 2.5 µM ([6]; Host cell viability (%)): 102%
viability at 48 h, 25 µM ([6]; Host cell viability (%)): 101%

OCCN1CCN(CCCN2c3ccccc3Sc3ccc(Cl)cc32)CC1 [Perphenazine]
viability at 48 h, 10 µM [5]: 84%
inhibition at 10 µM [2, 7]: 104%
inhibition at 2.5 µM [3, 13]: -6.8%
inhibition at 25 µM [3, 9]: 112%
viability at 48 h, 2.5 µM ([6]; Host cell viability (%)): 95%
viability at 48 h, 25 µM ([6]; Host cell viability (%)): 65%

CC[N+](C)(CC)CCC[n+]1c(-c2ccccc2)c2cc(N)ccc2c2ccc(N)cc21.[I-].[I-] [Propidium Iodide]
Host Viability (%) ([1]; 10 µM): 91%
Parasite inhibition (%) [2, 7]: 91%

COc1ccc(Cl)cc1NC(=O)Nc1cc(C)nc2ccccc12 [TCMDC-125497]
Host Viability (%) ([1]; 10 µM): 82%
Parasite inhibition (%) [2, 7]: 106%
Parasite inhibition (%) [3, 8]: 20%
Parasite inhibition (%) [3, 9]: 113%
Host cell viability (%) ([4]; 2.5 µM): 99%
Host cell viability (%) ([4]; 25 µM): 78%

PENITREM A
Parasite inhibition (%) [2, 7]: 105%
Parasite inhibition (%) [3, 8]: 6.0%
Parasite inhibition (%) [3, 9]: 110%
